# Tested on: MDA-MB-231 cells
# Experiment: cells
# Type: cell-based, human
structure (smiles),measurement,setting,value
"CC(=O)O[C@H]1C(=O)[C@@]2(C)[C@H]([C@H](OC(=O)c3ccccc3)[C@]3(O)C[C@H](OC(=O)[C@H](O)[C@@H](NC(=O)c4ccccc4)c4ccccc4)C(C)=C1C3(C)C)[C@]1(OC(C)=O)CO[C@@H]1C[C@@H]2O [taxol, paclitaxel]",IC50,"Homo sapiens, MDA-MB-231, read-out: IC50 dose",~50 nM
same,reduction of MDA-MB-231 viability,"free taxol, 43 μg dose, 24 h",~50%

# — patent publication US20240122867A1, “CORONAL PROTEIN-COATED NANOPARTICLES AND USES THEREOF” (UNIVERSITY OF CENTRAL FLORIDA RESEARCH FOUNDATION, INC., priority 2021, published 2024)
